Data published in article PMC12718228 (Applied Biochemistry and Biotechnology, 2025).

Assays:
[1] = biological target: T1, SALDAP (6xHis-SALDAP), salicylaldehyde dehydrogenase (soil metagenome, UniProt Z9QUQ6R3A5); assay: X-ray crystallography, electron density in active site; assay type: binding; details: two conformations; structure first reported in the group's earlier paper
T1 construct: full-length ORF, N-terminal 6xHis tag kept (pLATE51), E. coli BL21(DE3); homodimer about 110-115 kDa

[2] = biological target: T1, SALDAP (6xHis-SALDAP), salicylaldehyde dehydrogenase; assay: differential scanning fluorimetry, SYPRO Orange; assay type: binding; details: 50 mM HEPES pH 7.4
Text: differential scanning fluorimetry, SYPRO Orange on SALDAP (6xHis-SALDAP), salicylaldehyde dehydrogenase

[3] = biological target: T1, SALDAP (6xHis-SALDAP), salicylaldehyde dehydrogenase; assay: NADH formation at […] nm, substrate inhibition fit; assay type: biochemical; details: 50 µM NAD+, 100 mM Tricine pH 8.0, 25 °C, 1.7% DMSO

Structure (SMILES)	Tm ^oC ([2]; 2 mM ligand with 1.5 mM NAD+) [°C]	also measured
O=Cc1ccc2ccccc2c1 [2-naphthaldehyde]	–	X-ray crystallography, electron density in active site [1]: electron density as seen in the active site of SALDAP after refinement using 2-naphthaldehyde
O=Cc1ccc(O)c(O)c1 [3,4-dihydroxybenzaldehyde]	71.0 ± 0.0	–
O=Cc1ccc(O)cc1 [4-hydroxybenzaldehyde]	70.0 ± 0.3	–
O=Cc1ccccc1 [Benzaldehyde]	–	Ki [3]: 5.02 ± 1.84 µM
NC(=O)c1ccc[n+]([C@@H]2O[C@H](COP(=O)(O)OP(=O)(O)OC[C@H]3O[C@@H](n4cnc5c(N)ncnc54)[C@H](O)[C@@H]3O)[C@@H](O)[C@H]2O)c1 [NAD+]	–	Tm ^oC ([2]; 1.5 mM NAD+ alone): 68.7 ± 0.3 °C
COc1cc(C=O)ccc1O [Vanillin]	69.6 ± 0.4	–
